Values joined by “and” are separate entries in the source; they are usually repeats but may differ in a detail not shown here. Equal values may be shown once.
Test: In vivo toxicity studies (body and organ weights, hematology, clinical chemistry, histopathology)
Procedure: Toxicity studies. Eight week-old C57Bl/6NTac female mice were randomly assigned to either control or treatment groups. Each treatment group received one daily dose of test article through i.p. injection over 5 consecutive days. Toxicity was monitored by weight loss and daily clinical observation for the 14 days following test article administration. 24 hours after the last test article administration 4 mice in each group were sacrificed and clinical chemistry, hematology and tissue specific histopathology were done at autopsy. The remaining mice (n=2 per group) were kept under observation for an additional 13 days; at that point all mice were sacrificed and clinical chemistry, hematology and tissue specific histopathology were done at time of autopsy.
D) KOPT-K1 xenograft studies.

[1] = 0.2 mg/kg, female, Day 5, individual animals
[2] = 0.2 mg/kg, female, Day 19, % change of mean vs vehicle
[3] = 0.2 mg/kg, female, Day 19, group mean
[4] = 0.2 mg/kg, female, Day 19, individual animals
[5] = bone marrow cytology, count of 300 total cells, individual animals Treatment #7-#10
[6] = bone marrow cytology, individual animals Treatment #7-#10
[7] = spleen cytology, individual animals Treatment #7-#10
[8] = therapeutic doses (0.2 mg/kg i.p.)

(±)-CR-31-B
NEUT [1]: 1.05 K/uL and 1.69 K/uL and 1.40 K/uL and 1.70 K/uL | NEUT % [1]: 21.94% and 24.51% and 28.20% and 24.44% | Na [1]: 152 mEq/L and 147 mEq/L (2×) and 150 mEq/L | PLT [1]: 872 K/uL and 673 K/uL and 676 K/uL and 682 K/uL | RBC [1]: 9.31 M/uL and 8.95 M/uL and 8.69 M/uL and 8.89 M/uL | RDW % [1]: 15.6% and 16.1% and 15.2% and 16.4% | Right Kidney [1]: 0.119 gm and 0.125 gm (2×) and 0.135 gm and 0.75 % body wt and 0.73 % body wt and 0.77 % body wt and 0.78 % body wt | Spleen [1]: 0.049 gm and 0.070 gm and 0.086 gm and 0.064 gm and 0.31 % body wt and 0.41 % body wt and 0.49 % body wt and 0.40 % body wt | TBIL [1]: 0.2 mg/d L (3×) and 0.1 mg/d L | TP [1]: 5.1 g/dL and 4.8 g/dL (2×) and 4.9 g/dL | WBC [1]: 4.78 K/uL and 6.90 K/uL and 4.98 K/uL and 6.96 K/uL | BASO % % ChVh [2]: 27.3% | BASO (K/uL) % ChVh [2]: −100.0% | Body Weight % ChVh [2]: 3.6% | EOS % % ChVh [2]: 5.5% | EOS (K/uL) % ChVh [2]: −50.0% | HCT % % ChVh [2]: 0.2% | HGB % ChVh [2]: −5.0% | LYM % % ChVh [2]: −0.1% | LYM (K/uL) % ChVh [2]: −58.8% | Left Kidney (% body wt) % ChVh [2]: −9.1% | Left Kidney (gm) % ChVh [2]: −11.8% | Liver (% body wt) % ChVh [2]: 4.1% | Liver (gm) % ChVh [2]: 7.9% | MCH % ChVh [2]: -4.5% | MCHC % ChVh [2]: -5.4% | MCV % ChVh [2]: 0.4% | MONO % % ChVh [2]: −34.0% | MONO (K/uL) % ChVh [2]: −70.0% | MPV % ChVh [2]: 4.3% | NEUT % % ChVh [2]: 3.7% | NEUT (K/uL) % ChVh [2]: −56.3% | PLT % ChVh [2]: 10.5% | RBC % ChVh [2]: −0.2% | RDW % % ChVh [2]: 0.6% | Right Kidney (% body wt) % ChVh [2]: −6.3% | Right Kidney (gm) % ChVh [2]: −3.6% | Spleen (% body wt) % ChVh [2]: 0.0% | Spleen (gm) % ChVh [2]: 3.2% | WBC % ChVh [2]: −58.5% | BASO [3]: 0.00 K/uL | BASO % [3]: 0.14% | Body Weight [3]: 17.981 gm | EOS [3]: 0.02 K/uL | EOS % [3]: 0.58% | HCT % [3]: 44.2% | HGB [3]: 13.2 g/dL | LYM [3]: 2.46 K/uL | LYM % [3]: 84.19% | MCH [3]: 14.7 pg | MCHC [3]: 29.9 g/dL | MCV [3]: 49.0 fL | MONO [3]: 0.03 K/uL | MONO % [3]: 0.93% | MPV [3]: 4.8 fL | NEUT [3]: 0.42 K/uL | NEUT % [3]: 14.16% | PLT [3]: 1196.5 K/uL | RBC [3]: 9.02 M/uL | RDW % [3]: 16.3% | WBC [3]: 2.93 K/uL | 2D. Individual chemistry, column 2 (head not shown; probably ALP) [4]: 144 and 160 | 2D. Individual chemistry, column 3 (head not shown; probably ALT) [4]: 20 and 22 | 2D. Individual chemistry, column 4 (head not shown; probably AST) [4]: 33 and 38 | 2D. Individual chemistry, column 5 (head not shown; probably GGT) [4]: 0 | 2D. Individual chemistry, column 6 (head not shown; probably albumin) [4]: 2.9 | 2D. Individual chemistry, column 7 (head not shown; probably total protein) [4]: 4.7 | 2D. Individual chemistry, column 8 (head not shown; probably globulin) [4]: 1.8 | 2D. Individual chemistry, column 10 (head not shown; probably total bilirubin) [4]: 0.1 | 2D. Individual chemistry, column 11 (head not shown; probably BUN) [4]: 29 and 35 | 2D. Individual chemistry, column 12 (head not shown; probably creatinine) [4]: 0.2 | BASO [4]: 0.00 K/uL | BASO % [4]: 0.14% and 0.13% | Body Weight [4]: 18.769 gm and 17.192 gm | CHOL [4]: 71 mg/dL and 59 mg/dL | Ca [4]: 9.0 mg/dL and 9.4 mg/dL | Cl [4]: 112 mEq/L and 117 mEq/L | EOS [4]: 0.02 K/uL | EOS % [4]: 0.50% and 0.66% | GLUC [4]: 254 mg/dL and 227 mg/dL | HCT % [4]: 45.9% and 42.5% | HGB [4]: 13.4 g/dL and 13.0 g/dL | K [4]: 3.5 mEq/L and 4.0 mEq/L | LYM [4]: 2.80 K/uL and 2.12 K/uL | LYM % [4]: 83.42% and 84.96% | Left Kidney [4]: 0.111 gm and 0.113 gm and 0.73 % body wt and 0.66 % body wt | Liver [4]: 1.111 gm and 0.988 gm and 5.92 % body wt and 5.75 % body wt | MCH [4]: 14.4 pg and 14.9 pg | MCHC [4]: 29.2 g/dL and 30.6 g/dL | MCV [4]: 49.2 fL and 48.8 fL | MONO [4]: 0.03 K/uL and 0.02 K/uL | MONO % [4]: 0.91% and 0.95% | MPV [4]: 4.6 fL and 4.9 fL | NEUT [4]: 0.51 K/uL and 0.33 K/uL | NEUT % [4]: 15.03% and 13.29% | Na [4]: 147 mEq/L and 149 mEq/L | PLT [4]: 990 K/uL and 1403 K/uL | RBC [4]: 9.33 M/uL and 8.70 M/uL | RDW % [4]: 16.4% and 16.2% | Right Kidney [4]: 0.137 gm and 0.127 gm and 0.73 % body wt and 0.74 % body wt | Spleen [4]: 0.081 gm and 0.048 gm and 0.43 % body wt and 0.28 % body wt | WBC [4]: 3.36 K/uL and 2.50 K/uL | Lymph [5]: 64 and 60 and 61 and 44 | Mast [5]: 0 | Mat ery [5]: 56 and 62 and 45 and 38 | Mat myel [5]: 122 (2×) and 88 (2×) and 120 (2×) and 121 (2×) | Plasma [5]: 0 | Pro myel [5]: 34 and 64 and 52 and 72 | Prol ery [5]: 24 and 26 and 22 and 25 | Total Ery [5]: 80 and 88 and 67 and 63 | Total myel [5]: 156 and 152 and 172 and 193 | % Lymph [6]: 21.3% and 20.0% and 20.3% and 14.7% | % Mast [6]: 0.0% | % Mat ery [6]: 18.7% and 20.7% and 15.0% and 12.7% | % Plasma [6]: 0.0% | % Pro ery [6]: 8.0% and 8.7% and 7.3% and 8.3% | % Pro myel [6]: 11.3% and 21.3% and 17.3% and 24.0% | % T ery [6]: 26.7% and 29.3% and 22.3% and 21.0% | % T myel [6]: 52.0% and 50.7% and 57.3% and 64.3% | % mat myel [6]: 40.7% and 29.3% and 40.0% and 40.3% | M:E [6]: 2.0 and 1.7 and 2.6 and 3.1 | intestinal histology (during and after treatment): No changes | % Erythroid [7]: 0% (3×) and 1% | % Lymph [7]: 94% (2×) and 90% (4×) and 86% (2×) | % Macrophage [7]: 2% (3×) and 0% | % Mesenchymal [7]: 0% (3×) and 2% | % Myeloid [7]: 4% and 7% and 9% and 10% | % Plasma [7]: 0% (3×) and 1% | other blood counts, bone marrow cytology, serum chemistry [8]: no other changes | white cell count [8]: reversible drop in white cell count with a nadir on day 19

— patent publication US20150219624A1, “METHODS FOR IDENTIFYING ANTI-CANCER COMPOUNDS” (MEMORIAL SLOAN KETTERING CANCER CENTER, priority 2013, published 2015)
